This passage reports EC50 results from patent publication US12421206B2, “Aryl-n-aryl derivatives for treating a RNA virus infection” (ABIVAX, priority 2018, dated 2025).

What is called EC50 is the concentration giving half of the maximal effect.

This assay has as its system RSV A2. In words: RSV inhibition (cytopathic effect inhibition) using Viral ToxGlo assay in HEp-2 cells. In kind it is cell-based. Conditions: human respiratory syncytial virus, RSV A2, MOI 0.5, HEp-2 cells, 72 h p.i. On the procedure:
Protocol for Screening Antiviral Compounds for RSV Inhibition and Cytotoxicity Using Viral ToxGlo Assay
HEp-2 cells were maintained in Eagle's minimum essential medium (EMEM) with Earle's BSS adjusted to contain 2 mM L-glutamine, 10% fetal bovine serum, 100 U/ml penicillin and 100 μg/ml streptomycin. For the purposes of the screening assay they were grown to 90% confluency, trypsinized and recovered. The trypsin was neutralised with cell culture media and cells were centrifuged at 150×g for 5 minutes before discarding the supernatant and resuspending cell pellet in assay media (EMEM with Earle's BSS adjusted to contain 2 mM L-glutamine, 2% fetal bovine serum and 100 U/ml penicillin and 100 μg/ml streptomycin). The cells were seeded into white clear-bottomed cell culture plates at a density of 1.5×10^4 cells/well in 50 μl and 4×10^3 cells/well in 25 μl for 96 well plates and 384 well plates respectively. For the media/background control column assay media only was added. Cell plates were placed in a humid chamber and incubated overnight at 37° C./5% CO2. After overnight incubation cells were checked for confluency and healthy appearance.
Test articles were made up at 10× test concentration in a maximum DMSO concentration of 10% (final assay concentration maximal 1% DMSO) and added to the cell plates in volumes of 10 μl for 96 well plates and 5 μl for 384 well plates. For cell control and virus control wells the test article solvent only was added. Virus or assay media for cytotoxicity test wells and media/cell control wells was added immediately after test articles at an MOI of 0.5, 40 or 20 μl for 96 and 384 well plates respectively. Virus suspension was prepared by thawing RSV A2 frozen stocks and diluting to the required concentration of plaque forming units in assay media on ice.
Cell plates were further incubated inside a humid chamber for 72 h p.i at 37° C./5% CO2. After the incubation period cells were observed under the microscope to check for characteristic cytopathic effect in virus control wells and healthy cells in the cell control wells. After plates were adjusted to room temperature 20/40 μl Viral ToxGlo (Promega) was added to each well of the 384/96 well cell plates. Plates were incubated at room temperature, protected from light on a plate rocker for 20 minutes before measuring the luminescence on a spectrophotometer (Biotek Synergy HTX).
RSV inhibition was calculated as percentage of cytopathic effect inhibition relative to the virus control and cytotoxicity as percentage of cell survival relative to cell control wells. This allowed EC50 values to be calculated for each test article where a virus inhibition or cytotoxic dose response was identified.
(Damage to the host cells serves as the signal in cytopathic effect assays.)
In the case of `Cc1c(Nc2ccc(OCc3ccccn3)cc2C2CC2)cccc1OP(=O)(O)O` [Compound 109, [3-({2-cyclopropyl-4-[(pyridin-2-yl)methoxy]phenyl}amino)-2-methylphenoxy]phosphonic acid], the half-maximal effective concentration (EC50) stood at 48 nM.

Turning to `O=C(NCC1CCCCC1)c1ccccc1Nc1ccc(OCc2ccccc2)cc1C1CC1` [Compound 110, 2-{[4-(benzyloxy)-2-cyclopropylphenyl]amino}-N-(cyclohexylmethyl)benzamide], the EC50 was determined as 59 nM.

Take `CN(c1cccc(C(=O)NCCC2CCCCC2)c1)c1ccc(OCc2ccccn2)cc1C1CC1` [Compound 111, N-(2-cyclohexylethyl)-3-({2-cyclopropyl-4-[(pyridin-2-yl)methoxy]phenyl}(methyl)amino)benzamide]: the concentration for a half-maximal effect (EC50) came to 62 nM.

On to `CC(C)CCc1cn(-c2cccc(Nc3ccc(OCc4ccccn4)cc3C3CC3)c2)nn1` [Compound 112, 2-cyclopropyl-N-{3-[4-(3-methylbutyl)-1H-1,2,3-triazol-1-yl]phenyl}-4-[(pyridin-2-yl)methoxy]aniline], for which the EC50 came out at 67 nM.

Consider `O=C(NCC1CCCC1)c1ccccc1Nc1ccc(OCc2ccccn2)cc1C1CC1` [Compound 113, N-(cyclopentylmethyl)-2-({2-cyclopropyl-4-[(pyridin-2-yl)methoxy]phenyl}amino)benzamide], for which the EC50 was 69 nM.

As to `c1ccc(COc2ccc(Nc3cccc(OCCCC4CCCCC4)c3)c(N3CCOCC3)c2)cc1` [Compound 114, 4-(benzyloxy)-N-[3-(3-cyclohexylpropoxy)phenyl]-2-(morpholin-4-yl)aniline], the EC50 came out at 71 nM.

As to `O=C(NCCC1CCCCC1)c1ccccc1Nc1ccc(OCc2ccccc2)cc1C1CC1` [Compound 115, 2-{[4-(benzyloxy)-2-cyclopropylphenyl]amino}-N-(2-cyclohexylethyl)benzamide], the EC50 was determined as 83 nM.

Consider `O=C(CCC1CCCCC1)Nc1cc(Nc2ccc(OCc3ccccc3)cc2C(F)(F)F)ccc1F` [Compound 116, N-(5-{[4-(benzyloxy)-2-(trifluoromethyl)phenyl]amino}-2-fluorophenyl)-3-cyclohexylpropanamide], for which the EC50 turned out to be 93 nM.

For `O=C(NCCC1CCCCC1)c1cc(Nc2ccc(OCc3ccccn3)cc2C2CC2)ccn1` [Compound 117, N-(2-cyclohexylethyl)-4-({2-cyclopropyl-4-[(pyridin-2-yl)methoxy]phenyl}amino)pyridine-2-carboxamide], the EC50 turned out to be 98 nM.

For the compound `O=C(NCCC(F)(F)F)c1ccccc1Nc1ccc(OCc2ccccn2)cc1C1CC1` [Compound 120, 2-({2-cyclopropyl-4-[(pyridin-2-yl)methoxy]phenyl}amino)-N-(3,3,3-trifluoropropyl)benzamide], the EC50 was 110 nM.

`O=S(=O)(CCCC1CCCCC1)c1ccccc1Nc1ccc(OCc2ccccc2)cc1C1CC1` [Compound 122, 4-(benzyloxy)-N-[2-(3-cyclohexylpropanesulfonyl)phenyl]-2-cyclopropylaniline]: the EC50 turned out to be 116 nM.

Turning to `CC(C)CCNC(=O)c1ccccc1Nc1ccc(OCc2ccccn2)cc1C1CC1` [Compound 123, 2-({2-cyclopropyl-4-[(pyridin-2-yl)methoxy]phenyl}amino)-N-(3-methylbutyl)benzamide], the EC50 was 120 nM.

For the compound `O=S(=O)(NCCC1CCCCC1)c1cccc(Nc2ccc(OCc3ccccc3)cc2C(F)(F)F)c1` [Compound 124, 3-{[4-(benzyloxy)-2-(trifluoromethyl)phenyl]amino}-N-(2-cyclohexylethyl)benzene-1-sulfonamide], the EC50 worked out at 126 nM.

On to `O=C(CCC1CCCCC1)Nc1cc(Nc2ccc(OCc3ccc(F)cc3)cc2C(F)(F)F)ccc1F` [Compound 125, 3-cyclohexyl-N-[2-fluoro-5-({4-[(4-fluorophenyl)methoxy]-2-(trifluoromethyl)phenyl}amino)phenyl]propanamide], for which the EC50 came out at 130 nM.

For `CC(C)CCc1nc(-c2cccc(Nc3ccc(OCc4ccccn4)cc3C3CC3)c2)no1` [Compound 127, 2-cyclopropyl-N-{3-[5-(3-methylbutyl)-1,2,4-oxadiazol-3-yl]phenyl}-4-[(pyridin-2-yl)methoxy]aniline], the concentration for a half-maximal effect (EC50) was found to be 148 nM.

In the case of `CC(C)NC(=O)c1c(C#N)cccc1Nc1ccc(OCc2ccccc2)cc1C1CC1` [Compound 128, 2-{[4-(benzyloxy)-2-cyclopropylphenyl]amino}-6-cyano-N-(propan-2-yl)benzamide], the EC50 stood at 156 nM.

As to `c1ccc(COc2ccc(Nc3cccc(-c4noc(CCC5CCCCC5)n4)c3)c(C3CC3)c2)nc1` [Compound 129, N-{3-[5-(2-cyclohexylethyl)-1,2,4-oxadiazol-3-yl]phenyl}-2-cyclopropyl-4-[(pyridin-2-yl)methoxy]aniline], the EC50 was found to be 175 nM.

Take `c1ccc(COc2ccc(Nc3cccc(-c4nnc(CCC5CCCCC5)o4)c3)c(C3CC3)c2)nc1` [Compound 130, N-{3-[5-(2-cyclohexylethyl)-1,3,4-oxadiazol-2-yl]phenyl}-2-cyclopropyl-4-[(pyridin-2-yl)methoxy]aniline]: the EC50 stood at 198 nM.

`c1ccc(COc2ccc(Nc3cccc(OCCCC4CCCCC4)c3)c(N3CCC3)c2)cc1` [Compound 131, 2-(azetidin-1-yl)-4-(benzyloxy)-N-[3-(3-cyclohexylpropoxy)phenyl]aniline]: the EC50 is 204 nM.

As to `O=P(O)(O)Oc1cccc(Nc2ccc(OCc3ccccn3)cc2C2CC2)c1` [Compound 133, [3-({2-cyclopropyl-4-[(pyridin-2-yl)methoxy]phenyl}amino)phenoxy]phosphonic acid], the EC50 is 230 nM.

Regarding `CC(C)(C)OC(=O)N1CCN(C(=O)c2cccc(Nc3ccc(OCc4ccccn4)cc3C3CC3)c2)CC1` [Compound 134, tert-butyl 4-[3-({2-cyclopropyl-4-[(pyridin-2-yl)methoxy]phenyl}amino)benzoyl]piperazine-1-carboxylate], the EC50 is 281 nM.

Regarding `O=C(O)C(NCCC1CCCCC1)c1cccc(Nc2ccc(OCc3ccccc3)cc2C2CC2)c1` (stereo not shown) [Compound 135, 2-(3-{[4-(benzyloxy)-2-cyclopropylphenyl]amino}phenyl)-2-[(2-cyclohexylethyl)amino]aceticacid], the EC50 worked out at 292 nM.

Regarding `N#CC1(NC(=O)c2ccccc2Nc2ccc(OCc3ccccn3)cc2C2CC2)CC1` [Compound 136, N-(1-cyanocyclopropyl)-2-({2-cyclopropyl-4-[(pyridin-2-yl)methoxy]phenyl}amino)benzamide], the EC50 is 295 nM.

Take `c1ccc(COc2ccc(Nc3cccc(OC4CCC4)c3)c(C3CC3)c2)nc1` [Compound 137, N-(3-cyclobutoxyphenyl)-2-cyclopropyl-4-[(pyridin-2-yl)methoxy]aniline]: the EC50 came to 300 nM.

Turning to `COC(=O)C(NCCC1CCCCC1)c1cccc(Nc2ccc(OCc3ccccc3)cc2C2CC2)c1` (stereo not shown) [Compound 138, methyl 2-(3-{[4-(benzyloxy)-2-cyclopropylphenyl]amino}phenyl)-2-[(2-cyclohexylethyl)amino]acetate], the EC50 worked out at 312 nM.

Take `Cc1cc(OCc2ccccc2)ccc1Nc1ccccc1C(=O)NCCC1CCCCC1` [Compound 139, 2-{[4-(benzyloxy)-2-methylphenyl]amino}-N-(2-cyclohexylethyl)benzamide]: the EC50 was 329 nM.

As for `C[Si](C)(C)Oc1cccc(Nc2ccc(OCc3ccccn3)cc2C2CC2)c1` [Compound 141, 2-cyclopropyl-4-[(pyridin-2-yl)methoxy]-N-{3-[(trimethylsilyl)oxy]phenyl}aniline], the concentration giving a half-maximal response (EC50) was 352 nM.

For `O=S(=O)(CCCC1CCCCC1)c1cccc(Nc2ccc(OCc3ccccc3)cc2C2CC2)c1` [Compound 142, 4-(benzyloxy)-N-[3-(3-cyclohexylpropanesulfonyl)phenyl]-2-cyclopropylaniline], the EC50 amounted to 370 nM.

On to `CC(C)Cn1nnc(-c2cccc(Nc3ccc(OCc4ccccn4)cc3C3CC3)c2)n1` [Compound 147, 2-cyclopropyl-N-{3-[2-(2-methylpropyl)-2H-1,2,3,4-tetrazol-5-yl]phenyl}-4-[(pyridin-2-yl)methoxy]aniline], for which the EC50 was found to be 414 nM.

In the case of `Cc1cc(OCc2cccnn2)ccc1Nc1cccc(OCCCC2CCCCC2)c1` [Compound 148, N-[3-(3-cyclohexylpropoxy)phenyl]-2-methyl-4-[(pyridazin-3-yl)methoxy]aniline], the EC50 was 532 nM.

Turning to `c1ccc(COc2ccc(Nc3cccc(SCCCC4CCCCC4)c3)c(C3CC3)c2)cc1` [Compound 149, 4-(benzyloxy)-N-{3-[(3-cyclohexylpropyl)sulfanyl]phenyl}-2-cyclopropylaniline], the EC50 was determined as 555 nM.
